Assay results as given in article PMC7766155, “Improved Stability and Activity of a Marine Peptide-N6NH2 against Edwardsiella tarda and Its Preliminary Application in Fish” (Marine Drugs, 2020).
In brackets after ≈: the same amount, converted by molar mass. Several values for one entry are separate records, joined by “and”; a condition that tells them apart may be missing. Equal entries are not always repeated. Where two headings read alike, the source gives them in different places. Where a SMILES comes first, the peptide text is derived from it. Bridges are numbered along the chain shown (N, C = ends).

Assays:
E. tarda [1] = type: cell-based, Edwardsiella tarda
Procedure: (§1) All tests were conducted in triplicate.

E. tarda [2] = assay: Time-kill curves; type: cell-based, Edwardsiella tarda; conditions: 10^5 CFU/mL, 28 °C, 200 rpm, plate count every 2 h
Procedure: Time–kill curves for N6 and N6NH2 were determined against E. tarda. In brief, the mid-log phase bacterial cells (10^5 CFU/mL) were mixed with different concentrations of peptides (1 × and 2 × and 4 × MIC) and cultured at 28 °C (200 rpm). Samples of 100 μL were taken from the mixture at intervals of 2 h, continuously diluted, and counted on the plate.

E. tarda [3] = assay: Thermal stability (residual antibacterial activity, inhibition zone); type: physicochemical, Edwardsiella tarda; conditions: incubated 1 h at 100 °C; N6 128 μg/mL; inhibition zone method vs untreated peptide; triplicate
Procedure: To evaluate the thermal stability of peptides, N6 and N6NH2 were incubated for 1 h at 4, 20, 40, 60, 80 and 100 °C. To measure the pH stability, peptides were incubated for 3 h in 100 mM glycine-HCl buffer (pH 2.0), sodium acetate buffer (pH 4.0), sodium phosphate buffer (pH 6.0), Tris-HCl buffer (pH 8.0) or glycine-NaOH buffer (pH 10.0). In addition, peptides were incubated for 4 h at 37 °C in pepsin (3,000 U/mg, pH 2.0) and trypsin (250 U/mg, pH 8.0) (10:1, w/w) solutions, respectively. […] After treatment, 30 μL of solutions were taken out to determine the antibacterial activity of peptides against E. tarda by the inhibition zone method. The untreated peptides were used as the control. All tests were conducted in triplicate.

[4] = test system: inner membrane of E. tarda; assay: Inner membrane penetration, PI staining, flow cytometry; type: cell-based, Edwardsiella tarda
Procedure: After washing twice with PBS, the cells were incubated with PI (50 μg/mL) for 15 min and analyzed using a FACS Calibur Flow Cytometer (BD, San Jose, CA, USA).

E. tarda genomic DNA = assay: Gel migration (DNA binding) assay; parameters: species or system Edwardsiella tarda; conditions: 0.25 μg DNA, 10 min at room temperature, 0.7% agarose gel; mass ratios 0–10 tested
Procedure: (§2) The genomic DNA of E. tarda or O. niloticus was incubated for 10 min at room temperature with different concentrations of N6 and N6NH2 in binding buffer (5% glycerol, 10 mM Tris-HCl, pH 8.0, 20 mM KCl, 1 mM EDTA, 1 mM dithiothreitol and […] BSA). The mass ratios of peptides and DNA were 0, 0.5, 1, 2, 4, 6, 8, and 10, respectively. The migration of DNA was evaluated by electrophoresis on a 0.7% agarose gel.

fish genome DNA = assay: Gel migration (DNA binding) assay; conditions: O. niloticus genomic DNA, Supplementary Figure S2
Procedure: as §2

E. tarda cells = assay: TEM ultrastructure; type: cell-based, Edwardsiella tarda; conditions: 4 × MIC for 2 h, 1 × 10^8 CFU/mL
Procedure: Mid-log phase E. tarda cells (1 × 10^8 CFU/mL) were incubated with 4 × MIC N6 or N6NH2 for 2 h at 37 °C. The bacterial cells were then centrifuged, washed three times with 0.1 M PBS (pH 7.2) and fixed overnight at 4 °C with 2.5% glutaraldehyde. After washing twice with PBS, the cells were post-fixed with 1% osmium tetroxide (OsO4) for 2 h, dehydrated in a graded ethanol series (from 50% to 100%) for 15 min each time and dried by CO2. The cell samples were sputtered with gold-palladium and observed on a QUANTA200 electron microscopy (FEI, Philips, The Netherlands).
The bacterial cells were treated with peptides as described above, fixed with 2.5% glutaraldehyde at 4 °C overnight and post-fixed with 1% OsO4 for 1 h. After washing three times with PBS, the cells were dehydrated with a graded acetone series (50%, 70%, 85%, 95% and 100%, for 7 min each time) and immersed in mixtures of acetone and resin (3:1, 1:1 and 1:3, 40 min each time). The samples were infiltrated with a pure epoxy resin overnight, embedded in capsules containing embedding medium and polymerized at 45 °C for 3 h and at 65 °C for 24 h, respectively. Thin sections were cut using an ultramicrotome, stained with 1% uranyl acetate and examined by a JEM1400 (JEDL, Tokyo, Japan).

Staphylococcus hyicus = assay: microbe, parasite or virus in culture; type: cell-based
Procedure: as §1

[5] = test system: Escherichia coli, S. typhimurium, S. enteritidis and S. pullorum; assay: organism not typed; type: cell-based
Procedure: as §1

E. coli CVCCO157 = conditions: broth microdilution, MHB, 1 × 10^5 CFU/mL, 37 °C 18–24 h, n = 3; some N6 data from ref 19
[6] = test system: Pseudomonas aeruginosa CICC21630
[7] = test system: Staphylococcus aureus ATCC43300
[8] = broth microdilution, MHB, 1 × 10^5 CFU/mL, 37 °C 18–24 h, n = 3, some N6 data from ref 19

CC(C)[C@@H]1NC(=O)CNC(=O)[C@H](CC(N)=O)NC(=O)[C@H](CCCNC(=N)N)NC(=O)[C@H](Cc2ccc(O)cc2)NC(=O)[C@H](C(C)C)NC(=O)[C@@H](NC(=O)[C@@H](NC(=O)[C@H](CC(N)=O)NC(=O)[C@H](Cc2c[nH]c3ccccc23)NC(=O)[C@H](C)NC(=O)[C@H](Cc2ccccc2)NC(=O)CN)C(C)C)CSSC[C@@H](C(=O)N[C@@H](Cc2c[nH]cn2)C(=O)N[C@@H](CCCNC(=N)N)C(=O)N[C@@H](CCCNC(=N)N)C(=O)N[C@@H](C)C(=O)N[C@@H](CC(N)=O)C(=O)O)NC(=O)[C@H](C(C)C)NC(=O)[C@H](CCCNC(=N)N)NC1=O [Peptide N6] (H-GFAWNVCVYRNGVRVCHRRAN-OH; disulfide 7-16; N-terminus assumed)
MBC (E. tarda [1]): 12.8 µg/mL (≈ 5.17 µM)
time at which bacteria were killed (time-kill curve) (E. tarda [2]; 2 × MIC): ≤ 2 h
time at which bacteria were killed (time-kill curve) (E. tarda [2]; 4 × MIC): ≤ 2 h
decrease of antimicrobial activity against E. tarda after heating (E. tarda [3]): 6.7%
percentage of E. tarda stained with PI ([4]; 4 × MIC, 120 min, 1 × 10^8 CFU/mL, PI 50 μg/mL, flow cytometry): 77.7%
percentage of E. tarda stained with PI ([4]; within 30 min, 1×, 2× and 4× MIC): less than 5%
mass ratio of peptide and DNA at which migration of E. tarda genome DNA is inhibited (E. tarda genomic DNA): greater than 1
mass ratio at which migration of fish genome DNA is prevented (fish genome DNA): 2
abnormal cells (TEM) (E. tarda cells): over 95%
MIC (Staphylococcus hyicus): 16 to 64 µg/mL
MIC [5]: 0.25 to 4 µg/mL
MIC (Aeromonas veronii): 2.58 µM
MIC (Aeromonas veronii; [8]): 6.4 µg/mL
MIC (Escherichia coli CVCC195; CVCC195): 0.2 µM
MIC (Escherichia coli CVCC195; [8]): 0.5 µg/mL
MIC (E. coli CVCC1515; CVCC1515): 0.4 µM
MIC (E. coli CVCC1515; [8]): 1 µg/mL
MIC (E. coli CVCC25922; CVCC25922): 0.1 µM
MIC (E. coli CVCC25922; [8]): 0.25 µg/mL
MIC (E. coli CVCCO157): 0.5 μg/mL and 0.2 μM
MIC (S. pullorum CVCC1789; CVCC1789): 0.2 µM
MIC (S. pullorum CVCC1789; [8]): 0.5 µg/mL
MIC ([6]; CICC21630): 1.6 µM
MIC [6, 8]: 4 µg/mL
MIC ([7]; ATCC43300): 6.46 µM
MIC [7, 8]: 16 µg/mL
MIC (S. aureus ATCC546; ATCC546): 1.62 µM
MIC (S. aureus ATCC546; [8]): 4 µg/mL
MIC (S. aureus ATCC25923; ATCC25923): 0.1 µM
MIC (S. aureus ATCC25923; [8]): 0.25 µg/mL
MIC (S. hyicus 437-2): 25.8 µM
MIC (S. hyicus 437-2; [8]): 64 µg/mL
MIC (S. hyicus 15095): 6.46 µM
MIC (S. hyicus 15095; [8]): 16 µg/mL
